This assay concerns rat small-intestinal brush border membrane vesicles. Put plainly: Inhibitory effect on 33PO4 uptake into rat small-intestinal brush border membrane vesicles (rapid filtration method). It is filed as biochemical. Conditions: 33PO4 uptake into rat small-intestinal BBMVs; test compound 1 µM; reacted for 60 seconds. The essentials:
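Uptake of ^33PO4 was measured by rapid filtration and liquid scintillation counting of filter-retained vesicles, after quenching with ice-cold 110 mM NaCl/1 mM KH2PO4/10 mM HEPES pH 7.5. Vesicles were brush border membranes from the upper small intestine of female Wistar rats aged 4–5 weeks.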

The text below walks through data of patent EP3928779A1 (Chugai Seiyaku Kabushiki Kaisha, priority 2014, dated 2016).

The structures appear in SMILES notation.

Regarding `CN(CCOc1ccc(CN2C(=O)C(C(=O)Nc3ccc(C(F)(F)F)cc3-c3cc(C(F)(F)F)ncn3)=C(O)C3(CCCC3)N2C)c(F)c1F)C1CCOCC1` [Example 365], the “Rate of uptake inhibition (%) (1 µM)” value was found to be 34%.

Turning to `CN(CCOc1ccc(CN2C(=O)C(C(=O)Nc3ccc(C(F)(F)F)cc3-c3cc(C(F)(F)F)ncn3)=C(O)C3(CCCC3)N2C)c(F)c1F)C1CCOC1` (stereo not drawn) [Example 366], the “Rate of uptake inhibition (%) (1 µM)” value is 38%.

Regarding `CN1N(Cc2ccc(OCCN3C4CCC3COC4)c(F)c2F)C(=O)C(C(=O)Nc2ccc(C(F)(F)F)cc2-c2cc(C(F)(F)F)ncn2)=C(O)C12CCCC2` [Example 367], the “Rate of uptake inhibition (%) (1 µM)” value is given as 43%.

`COC(=O)CN(C)CCOc1ccc(CN2C(=O)C(C(=O)Nc3ccc(C(F)(F)F)cc3-c3cc(C(F)(F)F)ncn3)=C(O)C3(CCCC3)N2C)c(F)c1F` [Example 368]: the “Rate of uptake inhibition (%) (1 µM)” value was 26%.

For the compound `CN1N(Cc2ccc(OCCN3CC(F)(F)C3)c(F)c2F)C(=O)C(C(=O)Nc2ccc(C(F)(F)F)cc2-c2cc(C(F)(F)F)ncn2)=C(O)C12CCCC2` [Example 369], the “Rate of uptake inhibition (%) (1 µM)” value is 43%.

With `C[C@@H]1COC[C@H](C)N1CCOc1ccc(CN2C(=O)C(C(=O)Nc3ccc(C(F)(F)F)cc3-c3cc(C(F)(F)F)ncn3)=C(O)C3(CCCC3)N2C)c(F)c1F` [Example 370], the “Rate of uptake inhibition (%) (1 µM)” value is recorded as 41%.

With `CN1N(Cc2ccc(OCCN3CCOCC3(C)C)c(F)c2F)C(=O)C(C(=O)Nc2ccc(C(F)(F)F)cc2-c2cc(C(F)(F)F)ncn2)=C(O)C12CCCC2` [Example 371], the “Rate of uptake inhibition (%) (1 µM)” value amounted to 38%.

`COCC(C)(C)N(C)CCOc1ccc(CN2C(=O)C(C(=O)Nc3ccc(C(F)(F)F)cc3-c3cc(C(F)(F)F)ncn3)=C(O)C3(CCCC3)N2C)c(F)c1F` [Example 372]: the “Rate of uptake inhibition (%) (1 µM)” value turned out to be 38%.

Turning to `CN(CCO)CCOc1ccc(CN2C(=O)C(C(=O)Nc3ccc(C(F)(F)F)cc3-c3cc(C(F)(F)F)ncn3)=C(O)C3(CCCC3)N2C)c(F)c1F` [Example 373], the “Rate of uptake inhibition (%) (1 µM)” value is on record as 27%.

Consider `CN1N(Cc2ccc(OCCN3CCC(N4CCOCC4)CC3)c(F)c2F)C(=O)C(C(=O)Nc2ccc(C(F)(F)F)cc2-c2cc(C(F)(F)F)ncn2)=C(O)C12CCCC2` [Example 374], for which the “Rate of uptake inhibition (%) (1 µM)” value is 42%.

For the compound `COC[C@@H]1CCCN1CCOc1ccc(CN2C(=O)C(C(=O)Nc3ccc(C(F)(F)F)cc3-c3cc(C(F)(F)F)ncn3)=C(O)C3(CCCC3)N2C)c(F)c1F` [Example 375], the “Rate of uptake inhibition (%) (1 µM)” value came to 31%.

On to `CN1N(Cc2ccc(OCCN3CCN(CCO)CC3)c(F)c2F)C(=O)C(C(=O)Nc2ccc(C(F)(F)F)cc2-c2cc(C(F)(F)F)ncn2)=C(O)C12CCCC2` [Example 376], for which the “Rate of uptake inhibition (%) (1 µM)” value was 33%.

Regarding `COCCN1CCN(CCOc2ccc(CN3C(=O)C(C(=O)Nc4ccc(C(F)(F)F)cc4-c4cc(C(F)(F)F)ncn4)=C(O)C4(CCCC4)N3C)c(F)c2F)CC1` [Example 377], the “Rate of uptake inhibition (%) (1 µM)” value was 29%.

Consider `CN1N(Cc2ccc(OCCN3CCN(CCOCCO)CC3)c(F)c2F)C(=O)C(C(=O)Nc2ccc(C(F)(F)F)cc2-c2cc(C(F)(F)F)ncn2)=C(O)C12CCCC2` [Example 378], for which the “Rate of uptake inhibition (%) (1 µM)” value is given as 35%.

Take `CN1N(Cc2ccc(OCCN3CCN(S(C)(=O)=O)CC3)c(F)c2F)C(=O)C(C(=O)Nc2ccc(C(F)(F)F)cc2-c2cc(C(F)(F)F)ncn2)=C(O)C12CCCC2` [Example 379]: the “Rate of uptake inhibition (%) (1 µM)” value is 37%.

Regarding `CN1N(Cc2ccc(OCCN3[C@@H]4COC[C@H]3C4)c(F)c2F)C(=O)C(C(=O)Nc2ccc(C(F)(F)F)cc2-c2cc(C(F)(F)F)ncn2)=C(O)C12CCCC2` [Example 380], the “Rate of uptake inhibition (%) (1 µM)” value was 43%.

`CN1N(Cc2ccc(OCCN[C@@H](CC(=O)O)C(=O)O)c(F)c2F)C(=O)C(C(=O)Nc2ccc(C(F)(F)F)cc2-c2cc(C(F)(F)F)ncn2)=C(O)C12CCCC2` [Example 381, (2S)-2-[2-[2,3-Difluoro-4-[[10-hydroxy-6-methyl-8-oxo-9-[[4-trifluoromethyl-2-[6-(trifluoromethyl)pyrimidin-4-yl]phenyl]carbamoyl]-6,7-diazaspiro[4.5]dec-9-en-7-yl]methyl]phenoxy]ethylamino]butanedioate]: the “Rate of uptake inhibition (%) (1 µM)” value was determined as 28%.

Take `CN1N(Cc2ccc(OCCNC(CC(=O)O)CC(=O)O)c(F)c2F)C(=O)C(C(=O)Nc2ccc(C(F)(F)F)cc2-c2cc(C(F)(F)F)ncn2)=C(O)C12CCCC2` [Example 382, 3-[2-[2.3-Difluoro-4-[[10-hydroxy-6-methyl-8-oxo-9-[[4-(trifluoromethyl)-2-[6-(trifluoromethyl)pyrimidin-4-yl]phenyl]carbamoyl]-6,7-diazaspiro[4.5]dee-9-en-7-yl)methyl]phenoxy]ethylamino]pentanedioate]: the “Rate of uptake inhibition (%) (1 µM)” value was found to be 21%.

With `CN1N(Cc2ccc(OCCCOC[C@H](O)CO)c(F)c2F)C(=O)C(C(=O)Nc2ccc(C(F)(F)F)cc2-c2ccc(C(F)(F)F)nc2)=C(O)C12CCC2` [Example 383], the “Rate of uptake inhibition (%) (1 µM)” value is on record as 26%.

As for `CN1N(Cc2ccc(OCCCCOC[C@H](O)CO)c(F)c2F)C(=O)C(C(=O)Nc2ccc(C(F)(F)F)cc2-c2ccc(C(F)(F)F)nc2)=C(O)C12CCC2` [Example 384], the “Rate of uptake inhibition (%) (1 µM)” value worked out at 39%.

For the compound `CN1N(Cc2ccc(OCCCCCOC[C@H](O)CO)c(F)c2F)C(=O)C(C(=O)Nc2ccc(C(F)(F)F)cc2-c2ccc(C(F)(F)F)nc2)=C(O)C12CCC2` [Example 385], the “Rate of uptake inhibition (%) (1 µM)” value was 39%.

Regarding `CN1N(Cc2ccc(OCCCOC[C@H](O)CO)c(F)c2F)C(=O)C(C(=O)Nc2ccc(C(F)(F)F)cc2-c2ccc(C(F)(F)F)nc2)=C(O)C12CCCC2` [Example 386], the “Rate of uptake inhibition (%) (1 µM)” value was 36%.

In the case of `CN1N(Cc2ccc(OCCCCOC[C@H](O)CO)c(F)c2F)C(=O)C(C(=O)Nc2ccc(C(F)(F)F)cc2-c2ccc(C(F)(F)F)nc2)=C(O)C12CCCC2` [Example 387], the “Rate of uptake inhibition (%) (1 µM)” value is reported as 23%.

In the case of `CN1N(Cc2ccc(OCCCCCOC[C@H](O)CO)c(F)c2F)C(=O)C(C(=O)Nc2ccc(C(F)(F)F)cc2-c2ccc(C(F)(F)F)nc2)=C(O)C12CCCC2` [Example 388], the “Rate of uptake inhibition (%) (1 µM)” value is 15%.

Regarding `CN1N(Cc2ccc(OCCCOC[C@H](O)CO)c(F)c2F)C(=O)C(C(=O)Nc2ccc(C(F)(F)F)cc2-c2cc(C(F)(F)F)ncn2)=C(O)C12CCC2` [Example 389], the “Rate of uptake inhibition (%) (1 µM)” value came to 29%.

Take `CN1N(Cc2ccc(OCCCCOC[C@H](O)CO)c(F)c2F)C(=O)C(C(=O)Nc2ccc(C(F)(F)F)cc2-c2cc(C(F)(F)F)ncn2)=C(O)C12CCC2` [Example 390]: the “Rate of uptake inhibition (%) (1 µM)” value was 58%.

Take `CN1N(Cc2ccc(OCCCCCOC[C@H](O)CO)c(F)c2F)C(=O)C(C(=O)Nc2ccc(C(F)(F)F)cc2-c2cc(C(F)(F)F)ncn2)=C(O)C12CCC2` [Example 391]: the “Rate of uptake inhibition (%) (1 µM)” value amounted to 42%.

As for `CN1N(Cc2ccc(OCCCOC[C@H](O)CO)c(F)c2F)C(=O)C(C(=O)Nc2ccc(C(F)(F)F)cc2-c2cc(C(F)(F)F)ncn2)=C(O)C12CCCC2` [Example 392], the “Rate of uptake inhibition (%) (1 µM)” value amounted to 47%.

As for `CN1N(Cc2ccc(OCCCCOC[C@H](O)CO)c(F)c2F)C(=O)C(C(=O)Nc2ccc(C(F)(F)F)cc2-c2cc(C(F)(F)F)ncn2)=C(O)C12CCCC2` [Example 393], the “Rate of uptake inhibition (%) (1 µM)” value worked out at 45%.

In the case of `CN1N(Cc2ccc(OCCCCCOC[C@H](O)CO)c(F)c2F)C(=O)C(C(=O)Nc2ccc(C(F)(F)F)cc2-c2cc(C(F)(F)F)ncn2)=C(O)C12CCCC2` [Example 394], the “Rate of uptake inhibition (%) (1 µM)” value is given as 45%.

Regarding `CN1N(Cc2ccc(OCCCOCCO)c(F)c2F)C(=O)C(C(=O)Nc2ccc(C(F)(F)F)cc2-c2cc(C(F)(F)F)ncn2)=C(O)C12CCCC2` [Example 395], the “Rate of uptake inhibition (%) (1 µM)” value was found to be 39%.

`CN1N(Cc2ccc(OCCCCOCCO)c(F)c2F)C(=O)C(C(=O)Nc2ccc(C(F)(F)F)cc2-c2cc(C(F)(F)F)ncn2)=C(O)C12CCCC2` [Example 396]: the “Rate of uptake inhibition (%) (1 µM)” value is listed as 38%.

Consider `CN1N(Cc2ccc(OCCCCCOCCO)c(F)c2F)C(=O)C(C(=O)Nc2ccc(C(F)(F)F)cc2-c2cc(C(F)(F)F)ncn2)=C(O)C12CCCC2` [Example 397], for which the “Rate of uptake inhibition (%) (1 µM)” value worked out at 40%.

In the case of `CN1N(Cc2ccc(OCCCOCCCO)c(F)c2F)C(=O)C(C(=O)Nc2ccc(C(F)(F)F)cc2-c2cc(C(F)(F)F)ncn2)=C(O)C12CCCC2` [Example 398], the “Rate of uptake inhibition (%) (1 µM)” value is 34%.

Take `CN1N(Cc2ccc(OCCCCOCCCO)c(F)c2F)C(=O)C(C(=O)Nc2ccc(C(F)(F)F)cc2-c2cc(C(F)(F)F)ncn2)=C(O)C12CCCC2` [Example 399]: the “Rate of uptake inhibition (%) (1 µM)” value came to 42%.

In the case of `CN1N(Cc2ccc(OCCCCCOCCCO)c(F)c2F)C(=O)C(C(=O)Nc2ccc(C(F)(F)F)cc2-c2cc(C(F)(F)F)ncn2)=C(O)C12CCCC2` [Example 400], the “Rate of uptake inhibition (%) (1 µM)” value was found to be 36%.

With `COCCOCCOc1ccc(CN2C(=O)C(C(=O)Nc3ccc(C(F)(F)F)cc3-c3cc(C(F)(F)F)ncn3)=C(O)C3(CCC3)N2C)c(F)c1F` [Example 401], the “Rate of uptake inhibition (%) (1 µM)” value is given as 39%.

On to `CN(CCOc1ccc(CN2C(=O)C(C(=O)Nc3ccc(C(F)(F)F)cc3-c3cc(C(F)(F)F)ncn3)=C(O)C3(CCC3)N2C)c(F)c1F)C1COC1` [Example 402, 6-(2,3-Difluoro-4-(2-(methyl(oxetan-3-yl)amino)ethoxy)benzyl)-9-hydroxy-5-methyl-7-oxo-N-(4-(trifluoromethyl)-2-(6-(trifluoromethyl)pyrimidin-4-yl)phenyl)-5,6-diazaspiro[3.5]non-8-ene-8-carboxamide], for which the “Rate of uptake inhibition (%) (1 µM)” value came out at 54%.

For the compound `CN1N(Cc2ccc(OC3COC3)c(F)c2F)C(=O)C(C(=O)Nc2ccc(C(F)(F)F)cc2-c2cc(C(F)(F)F)ncn2)=C(O)C12CCC2` [Example 403, 6-(2,3-Difluoro-4-(oxetan-3-yloxy)benzyl)-9-hydroxy-5-methyl-7-oxo-N-(4-(trifluoromethyl)-2-(6-(trifluoromethyl)pyrimidin-4-yl)phenyl)-5,6-diazaspiro[3.5]non-8-ene-8-carboxamide], the “Rate of uptake inhibition (%) (1 µM)” value is listed as 71%.
